From US20120115947A1, “COMBINATION/ASSOCIATION OF ADAPALENE AND BENZOYL PEROXIDE FOR TREATING ACNE LESIONS” (Galderma Research & Development, priority 2006, published 2012)

Key:
[1] = system: patients suffering from acne; assay: Multi-centre, randomized, double-blind clinical study of adapalene + BPO topical gel versus monads and vehicle; type: in vivo; conditions: adapalene 0.1%, BPO 2.5%; for Reduction in lesions (all lesions): 12 weeks, gels once a day, rounded values of the text; for Degree of success (percentage of patients clear or almost clear): week 12, ITT (LOCF), gels once a day for 12 weeks
Experimental: A clinical study for confirmation of efficacy was performed for a topical gel combining adapalene+benzoyl peroxide (BPO). This gel has the following formulation (expressed as % weight/total weight): [table] Protocol: The clinical study was a multi-centre, randomized, double-blind study in parallel groups, to evaluate the tolerance and the efficacy of the above formulation, in comparison with its own individual active substances placed at the same doses in gels of the same formula as that of the fixed combination (individual formulae referred to as “monads”) and in comparison with the gel vehicle (placebo formula): adapalene gel (0.1%), BPO gel (2.5%) and vehicle gel. All the treatments were applied once a day for 12 weeks, to 517 patients suffering from acne. The main efficacy criteria were: the degree of success, defined as the percentage of patients considered as being “clear”, i.e., the patient has no more acne lesions (neither comedones nor inflammatory lesions), reflecting an improvement in the patient's clinical condition, or “almost clear” on the evaluation scale; the reduction of the percentage of inflammatory and non-inflammatory lesions after 12 weeks of treatment.

[2] = system: TPA-induced ear edema; assay: Anti-inflammatory evaluation in TPA-induced ear edema model; type: in vivo, Balb/c mice; conditions: single topical application, T+6 hours
Experimental: Evaluation of the Anti-Inflammatory in Ear Edema Model on Balb/c Mice
The study was carried out with […] ([…]) female 9 weeks aged Balb/c ByJlc mice.
The Edema was induced by a single application of 20 μl of TPA dissolved in acetone at 0.01%.
The treatment was administrated by single topical application of tested compounds dissolved in TPA at 0.01% (groups 3, 4, 5, 6 and 7) and dissolved in TPA 0.01%+BPO (groups 8, 9 and 10).
The treatments activity was measured by inflammation evaluation with ear thickness at T+6 hours.

SMILES: O=C(OOC(=O)c1ccccc1)c1ccccc1 [BPO, benzoyl peroxide]
- Reduction in lesions (all lesions) [1]: 36%
- Degree of success (percentage of patients clear or almost clear) [1]: 15%
- Anti-inflammatory effect on TPA-induced ear edema (in words) [2]: slight anti-inflammatory effect

SMILES: COc1ccc(-c2ccc3cc(C(=O)O)ccc3c2)cc1C12CC3CC(CC(C3)C1)C2 [Adapalene, 6-[3-(1-Adamantyl)-4-methoxyphenyl]-2-naphthoic acid]
- Reduction in lesions (all lesions) [1]: 35%
- Degree of success (percentage of patients clear or almost clear) [1]: 16%
- Anti-inflammatory effect on TPA-induced ear edema (in words) [2]: low anti-inflammatory effect
